{"source": "patent US9498476B2", "about": "“Crystalline form of 6-[(4S)-2-methyl-4-(2-naphthyl)-1,2,3,4-tetrahydroisoquinolin-7-yl]pyridazin-3-amine” (Bristol-Myers Squibb Company, priority 2008, dated 2016)", "type_in_all_cases": "physicochemical", "key": {"[1]": {"assay": "Solubility profile (USP definition) in solvents"}, "[2]": {"assay": "Distribution coefficient (Log Do/b)", "conditions": "pH 6.5"}, "[3]": {"assay": "pH-Solubility profile (aqueous solubility)"}}}
{"compound": "CN1Cc2cc(-c3ccc(N)nn3)ccc2[C@H](c2ccc3ccccc3c2)C1", "note": "[Form N-1, 6-[(4S)-1,2,3,4-tetrahydro-2-methyl-4-(2-naphthalenyl)-7-isoquinolinyl]-3-pyridazinamine]", "values": [{"measurement": "Solubility profile (USP definition)", "setting": "[1]; acetone", "result": "slightly soluble: isopropanol, acetone, ethanol, methanol,"}, {"measurement": "Solubility profile (USP definition)", "setting": "[1]; acetonitrile", "result": "very slightly soluble: acetonitrile, ethyl acetate,"}, {"measurement": "Solubility profile (USP definition)", "setting": "[1]; dichloromethane", "result": "slightly soluble: isopropanol, acetone, ethanol, methanol,"}, {"measurement": "Solubility profile (USP definition)", "setting": "[1]; ethanol", "result": "slightly soluble: isopropanol, acetone, ethanol, methanol,"}, {"measurement": "Solubility profile (USP definition)", "setting": "[1]; ethyl acetate", "result": "very slightly soluble: acetonitrile, ethyl acetate,"}, {"measurement": "Solubility profile (USP definition)", "setting": "[1]; isopropanol", "result": "slightly soluble: isopropanol, acetone, ethanol, methanol,"}, {"measurement": "Solubility profile (USP definition)", "setting": "[1]; methanol", "result": "slightly soluble: isopropanol, acetone, ethanol, methanol,"}, {"measurement": "Solubility profile (USP definition)", "setting": "[1]; n-butanol", "result": "very slightly soluble: acetonitrile, ethyl acetate,"}, {"measurement": "Solubility profile (USP definition)", "setting": "[1]; propylene glycol", "result": "slightly soluble: isopropanol, acetone, ethanol, methanol,"}, {"measurement": "Distribution coefficient Log Do/b", "setting": "[2]", "result": 3.10}, {"measurement": "Aqueous solubility (in words)", "setting": "[3]", "result": "high aqueous solubility"}]}
